Entries after “also recorded” stand apart in the source; their conditions may differ. Where a SMILES comes first, the peptide text is derived from it.
Tests used:
[1] = cited from earlier work; for Sweetness power: standard sweetening power, saccharose = 1; for Relative sweetness: Table 2, relative to sucrose; for Sweetness potency, times higher than sucrose: related art
[2] = Table 2 and related-art text; cited from earlier work
[3] = Table 2; cited from earlier work
[4] = Quality of taste (sensory attributes)
Excerpt: Rebaudioside D is isolated and extracted, along with other steviol glycosides, from the Stevia rebaudiana Bertoni plant (“Stevia”), which is commercially cultivated in Japan, Taiwan, Malaysia, South Korea, China, Israel, India, Brazil, Australia, and Paraguay.

[5] = Solubility in water; type: physicochemical; conditions: high purity Rebaudioside D of the invention; increases with temperature
Excerpt: Solubility in water is around 0.2% which is increasing with increase in temperature. It precipitates again upon cooling the solution. Highly soluble during chromatographic separation stage and before crystallizing.

[6] = Solubility in organic solvents; type: physicochemical
Excerpt: Soluble in diluted solutions of methanol, ethanol, n-propanol, and isopropanol.
Insoluble in acetone, benzene, chloroform, and ether.

[7] = Heat and pH stability; type: physicochemical
[8] = Sweetness power / relative sweetness compared with sucrose; conditions: high purity Rebaudioside D of the invention, compared to 10% sucrose solution

Compound | Sweetness power [1] | Relative sweetness [1] | Quality of taste [2] | Solubility in water, % [3] | other results
CC1=CC(=O)NS(=O)(=O)O1 [Acesulfame-K] | 200 | – | – | – | –
C[C@@H](NC(=O)[C@@H](N)CC(=O)O)C(=O)NC1C(C)(C)SC1(C)C [Alitame] | 2000 | – | – | – | –
COC(=O)[C@H](Cc1ccccc1)NC(=O)[C@@H](N)CC(=O)O [Aspartame] (H-Asp-Phe-OMe) | 200 | – | – | – | –
C=C1C[C@@]23CC[C@H]4[C@@](C)(CCC[C@@]4(C)C(=O)O[C@@H]4O[C@H](CO)[C@@H](O)[C@H](O)[C@H]4O)[C@@H]2CC[C@]1(O[C@@H]1O[C@H](CO)[C@@H](O)[C@H](O)[C@H]1O[C@@H]1O[C@@H](C)[C@H](O)[C@@H](O)[C@H]1O)C3 [Dulcoside A] | – | 30 | Very bitter | 0.58% | Sweetness potency, times higher than sucrose [1]: around 30 times
CC1(C)[C@@H](O[C@H]2O[C@H](C(=O)O)[C@@H](O)[C@H](O)[C@H]2O[C@@H]2O[C@H](C(=O)O)[C@@H](O)[C@H](O)[C@H]2O)CC[C@]2(C)[C@H]3C(=O)C=C4[C@@H]5C[C@@](C)(C(=O)O)CC[C@]5(C)CC[C@@]4(C)[C@]3(C)CC[C@@H]12 [Glycyrrhizin] | 50 | – | – | – | –
COc1ccc(CCC(=O)c2c(O)cc(O[C@@H]3O[C@H](CO)[C@@H](O)[C@H](O)[C@H]3O[C@@H]3O[C@@H](C)[C@H](O)[C@@H](O)[C@H]3O)cc2O)cc1O [NHDC, neohesperidin dihydrochalcone] | 1000 | – | – | – | –
C=C1C[C@@]23CC[C@H]4[C@@](C)(CCC[C@@]4(C)C(=O)O[C@@H]4O[C@H](CO)[C@@H](O)[C@H](O)[C@H]4O)[C@@H]2CC[C@]1(O[C@@H]1O[C@H](CO)[C@@H](O)[C@H](O[C@@H]2O[C@H](CO)[C@@H](O)[C@H](O)[C@H]2O)[C@H]1O[C@@H]1O[C@H](CO)[C@@H](O)[C@H](O)[C@H]1O)C3 [Rebaudioside A] | 450 | 200-400 | most favorable sensory attributes of the four major steviol glycosides; also recorded: Less Bitter | 0.80% | –
C=C1C[C@@]23CC[C@H]4[C@@](C)(CCC[C@@]4(C)C(=O)O[C@@H]4O[C@H](CO)[C@@H](O)[C@H](O)[C@H]4O[C@@H]4O[C@H](CO)[C@@H](O)[C@H](O)[C@H]4O)[C@@H]2CC[C@]1(O[C@@H]1O[C@H](CO)[C@@H](O)[C@H](O[C@@H]2O[C@H](CO)[C@@H](O)[C@H](O)[C@H]2O)[C@H]1O[C@@H]1O[C@H](CO)[C@@H](O)[C@H](O)[C@H]1O)C3 [Rebaudioside D] | – | 220 | Like sucrose | 1.00% | Bitterness and aftertaste / sensory properties ([4]; amongst the sweet diterpenoid glycosides of Stevia): the least bitter, and with the least persistent aftertaste; Bitterness and aftertaste / sensory properties ([4]; amongst the sweet diterpenoid glycosides of Stevia; listed as Rebaudioside 1)): excellent sensory properties; Solubility in water [5]: around 0.2%; Solubility in non-alcohol organic solvents ([6]; acetone, benzene, chloroform, and ether): Insoluble; Solubility in diluted alcohols ([6]; diluted solutions of methanol, ethanol, n-propanol, and isopropanol): Soluble; Heat and pH stability [7]: heat and pH-stable; times sweeter than sugar [8]: 180-200 times
C=C1C[C@@]23CC[C@H]4[C@@](C)(CCC[C@@]4(C)C(=O)O[C@@H]4O[C@H](CO)[C@@H](O)[C@H](O)[C@H]4O[C@@H]4O[C@H](CO)[C@@H](O)[C@H](O)[C@H]4O)[C@@H]2CC[C@]1(O[C@@H]1O[C@H](CO)[C@@H](O)[C@H](O)[C@H]1O[C@@H]1O[C@H](CO)[C@@H](O)[C@H](O)[C@H]1O)C3 [Rebaudioside E] | – | 170 | Like sucrose | 1.70% | –
C=C1C[C@@]23CC[C@H]4[C@@](C)(CCC[C@@]4(C)C(=O)O[C@@H]4O[C@H](CO)[C@@H](O)[C@H](O)[C@H]4O)[C@@H]2CC[C@]1(O[C@@H]1O[C@H](CO)[C@@H](O)[C@H](O)[C@H]1O)C3 [Rubusoside] | – | 110 | Very bitter | – | –
O=C1NS(=O)(=O)c2ccccc21 [Saccharine] | 300 | – | – | – | –
OC[C@H]1O[C@@](CO)(O[C@H]2O[C@H](CO)[C@@H](O)[C@H](O)[C@H]2O)[C@@H](O)[C@@H]1O [Saccharose] | 1 | – | – | – | –
C=C1C[C@@]23CC[C@H]4[C@@](C)(CCC[C@@]4(C)C(=O)O)[C@@H]2CC[C@]1(O)C3 [Steviol] | – | – | Very bitter | – | –
C=C1C[C@@]23CC[C@H]4[C@@](C)(CCC[C@@]4(C)C(=O)O)[C@@H]2CC[C@]1(O[C@@H]1O[C@H](CO)[C@@H](O)[C@H](O)[C@H]1O[C@@H]1O[C@H](CO)[C@@H](O)[C@H](O)[C@H]1O)C3 [Steviolbioside] | – | 90 | Unpleasant | 0.03% | –
C=C1C[C@@]23CC[C@H]4[C@@](C)(CCC[C@@]4(C)C(=O)O[C@@H]4O[C@H](CO)[C@@H](O)[C@H](O)[C@H]4O)[C@@H]2CC[C@]1(O[C@@H]1O[C@H](CO)[C@@H](O)[C@H](O)[C@H]1O[C@@H]1O[C@H](CO)[C@@H](O)[C@H](O)[C@H]1O)C3 [Stevioside] | 200 | 210 | Bitter | 0.13% | Sweetness potency, times higher than sucrose [1]: around 210 times
OC[C@H]1O[C@H](O[C@]2(CCl)O[C@H](CCl)[C@@H](O)[C@@H]2O)[C@H](O)[C@@H](O)[C@H]1Cl [Sucralose] | 600 | – | – | – | –
Rebaudioside B | – | 150 | Bitter | 0.10% | –
Rebaudioside C | – | 30 | Bitter | 0.21% | Sweetness potency, times higher than sucrose [1]: around 30 times
Thaumatin | 3000 | – | – | – | –

Source: patent publication US8414950B2, “High-purity rebaudioside D and low-calorie table top tablet containing the same” (PureCircle Sdn Bhd, priority 2009, dated 2013)
